Laboratory results published in patent US20060154932A1, “Pharmaceutical compositions and method of treating parkinson's disease” (priority 2002, published 2006).

How the values were obtained:
[1] = test system: Parkinson's disease; conditions: cited from earlier work
[2] = test system: Parkinson's disease; test: Unified Parkinson's Disease Rating Scale (UPDRS) Part III motor examination of a patient; type: in vivo, human; conditions: Patient 1
Description: Patent 1, a person, was administered Part III (motor examination) of the Unified Parkinson's Disease Rating Scale (hereinunder abbreviated as UPDRS) and diagnosed as having Parkinson=3 s disease (scoring a 20 in the test). After a period of evaluation of drug therapy options, the patient was prescribed pergolide, 0.25 mg tid and selegiline 5 mg po. After six (6) months on drug therapy, the patient was once again examined with the UPDRS motor subset and scored 16.5. After three (3) months on the drug, 25 mg of VIOXX, once a day was added to the treatment regime. After four (4) additional months, the patient was once again administered the UPDRS, this time scoring a 6.0. After six (6) months on the VIOXX tripartite therapy, the patient was again administered the UPDRS motor examination and scored 4.0. (see Fahn S, Elton R L, Members of the UPDRS Development Committee. Unified Parkinson's disease rating scale. In: Fahn S, Marsden C D, Calne D, Goldstein M, eds. Recent developments in Parkinson=3 s disease, Vol II. Florham Park, N.J.: Macmillan Healthcare Information, 1987:153-163, 293-304): […]

[3] = test system: Parkinson's disease; test: Patient-reported tremor in a Parkinson's disease patient; type: in vivo, human; conditions: VIOXX 25 mg once a day added to Endo L-C 100-25 TID
Description: Patient 8 (person one), an adult, was diagnosed as having Parkinson's disease. After evaluation the patient was prescribed Endo L-C 100-25, TID. Approximately three years later, the patient began taking VIOXX (25 mg) once a day. After three weeks, patient noticed that severity of tremors had decreased and the frequency between the tremors had increased. In addition, night time tremors, those associated with sleeping, had dramatically subsided (i.e. by up to 90%). Overall, the patient reports that the tremors have subsided nearly 40%.

In the case of `NC12CC3CC(CC(C3)C1)C2` [Amantadine, amantadine], the “patients for whom useful in treating early, mild parkinsonism” value ([1]; 100 to 300 mg/day po) is given as 50%.
For `C#CCN(C)[C@H](C)Cc1ccccc1` [Selegiline, selegiline], the “delay of the initiation of levodopa” value ([1]; used as initial treatment) is listed as “about 1 yr”.
In the case of `CS(=O)(=O)c1ccc(C2=C(c3ccccc3)C(=O)OC2)cc1` [VIOXX, rofecoxib], the UPDRS score ([2]; 25 mg VIOXX once a day added to pergolide and selegiline, after four additional months) is reported as 6.0, the “UPDRS motor examination score” value ([2]; after six months on the VIOXX tripartite therapy (VIOXX 25 mg once a day, pergolide, selegiline)) is reported as 4.0 and the severity of tremors ([3]; Patient 8 (person one), after three weeks) is reported as “decreased”. The “night time tremors (associated with sleeping) subsided” value ([3]; Patient 8) was “up to 90%”, the “tremors subsided overall (patient report)” value ([3]; Patient 8) was ~40% and the “frequency between the tremors” value ([3]; Patient 8, after three weeks) was “increased”.
For `N[C@@H](Cc1ccc(O)c(O)c1)C(=O)O` [levodopa], the “patients beginning to experience fluctuations in their response (wearing off or on-off effect)” value ([1]; after 2 to 5 yr of treatment) is given as > 50%.
